Assay results published in patent US6737383B1, “Herbicidal oxadiazolidines” (priority 1999, dated 2004).

Experiments:
wild oat = test: Test B pre/postemergence wild oat; assay type: in vivo, Avena fatua
Procedure, shortened: (§1)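 Test chemicals in a non-phytotoxic solvent mixture with surfactant were sprayed preemergence onto planted seeds and postemergence onto plants 2 to 18 cm tall (1- to 4-leaf stage). After twelve to sixteen days in a greenhouse, injury was visually rated against untreated controls from 0 (no effect) to 10 (complete control).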

smallflower flatsedge = test: Test B flood test smallflower flatsedge; assay type: in vivo, Cyperus difformis
Procedure, shortened: (§2)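 Plants were grown to the 2-leaf stage before treatment with test chemical, then held in a greenhouse for twelve to sixteen days. Injury was visually rated against untreated controls on a 0–10 scale, where 0 is no effect and 10 is complete control.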

morningglory = test: Test B pre/postemergence morningglory; assay type: in vivo, Ipomoea hederacea; conditions: for Morningglory plant response rating: Postemergence; for Plant response rating, Morningglory: Preemergence
Procedure, shortened: as §1

blackgrass = test: Test B pre/postemergence blackgrass; assay type: in vivo, Alopecurus myosuroides
Procedure, shortened: as §1

giant foxtail = test: Test B pre/postemergence giant foxtail; assay type: in vivo, Setaria faberii
Procedure, shortened: as §1

corn = test: Test B pre/postemergence corn; assay type: in vivo, Zea mays; conditions: for Corn plant response rating: Postemergence; for Plant response rating, Corn: Preemergence
Procedure, shortened: as §1

rice = test: Test B flood test rice; assay type: in vivo, Oryza sativa
Procedure, shortened: as §2

sugar beet = test: Test B pre/postemergence sugar beet; assay type: in vivo, Beta vulgaris
Procedure, shortened: as §1

pigweed = test: Test B pre/postemergence pigweed; assay type: in vivo, Amaranthus retroflexus
Procedure, shortened: as §1

bedstraw = test: Test B pre/postemergence bedstraw; assay type: in vivo, Galium aparine; conditions: for Bedstraw plant response rating: Postemergence; for Plant response rating, Bedstraw: Preemergence
Procedure, shortened: as §1

bamyardgrass = test: Test B flood test barnyardgrass; assay type: in vivo, Echinochloa crus-galli
Procedure, shortened: as §2

rape = test: Test B pre/postemergence rape; assay type: in vivo, Brassica napus
Procedure, shortened: as §1

surinam grass = test: Test B pre/postemergence surinam grass; assay type: in vivo, Brachiaria decumbens
Procedure, shortened: as §1

crabgrass = test: Test B pre/postemergence crabgrass; assay type: in vivo, Digitaria sanguinalis
Procedure, shortened: as §1

wheat = test: Test B pre/postemergence wheat; assay type: in vivo, Triticum aestivum
Procedure, shortened: as §1

purple nutsedge = test: Test B pre/postemergence purple nutsedge; assay type: in vivo, Cyperus rotundus
Procedure, shortened: as §1

[1] = Postemergence, Rate 62 g/ha, scale 0 to 10, 0 is no effect, 10 is complete control
[2] = Postemergence, Rate 250 g/ha, scale 0 to 10, 0 no effect, 10 complete control
[3] = Preemergence, Rate 125 g/ha, scale 0 to 10 (0 no effect, 10 complete control)
[4] = Preemergence, Rate 250 g/ha, scale of 0 to 10 where 0 is no effect and 10 is complete control
[5] = Preemergence, Rate 500 g/ha, scale 0 (no effect) to 10 (complete control)
[6] = Rate 125 g/ha, Postemergence, scale 0 to 10, 0 no effect, 10 complete control
[7] = Rate 500 g/ha, Postemergence, scale 0 to 10, 0 no effect, 10 complete control
[8] = Rate 125 g/ha, Postemergence section (flood test species), scale 0 to 10, 0 no effect, 10 complete control
[9] = Rate 500 g/ha, listed under Postemergence (flood test species), scale 0 to 10, 0 no effect, 10 complete control
[10] = flood test, listed under Postemergence, Rate 250 g/ha, scale 0 to 10, 0 no effect, 10 complete control
[11] = Rate 62 g/ha, scale 0 to 10, 0 is no effect, 10 is complete control
[12] = Rate 250 g/ha, scale 0 to 10, 0 no effect, 10 complete control
[13] = Rate 125 g/ha, scale 0 to 10 (0 no effect, 10 complete control)
[14] = Rate 250 g/ha, scale of 0 to 10 where 0 is no effect and 10 is complete control
[15] = Rate 125 g/ha, scale 0 to 10, 0 no effect, 10 complete control
[16] = Rate 500 g/ha, scale 0 to 10, 0 no effect, 10 complete control
[17] = Preemergence, Rate 62 g/ha, scale 0 to 10, 0 is no effect, 10 is complete control

SMILES: Cc1cccc(Cl)c1-n1c(=O)on(C(=O)N(c2ccc(F)cc2)C(C)C)c1=O [Compound 53]
- Wild oats plant response rating (wild oat; [1]): 0
- Wild oats plant response rating (wild oat; [2]): 0
- Plant response rating, Wild oats (wild oat; [3]): 0
- Plant response rating, Wild oats (wild oat; [4]): 0
- Wild oats plant response rating (wild oat; [5]): 0
- Wild oats plant response rating (wild oat; [6]): 0
- Wild oats plant response rating (wild oat; [7]): 2
- S. Flatsedge plant response rating (smallflower flatsedge; [1]): 0
- S. Flatsedge plant response rating (smallflower flatsedge; [8]): 0
- S. Flatsedge plant response rating (smallflower flatsedge; [9]): 0
- S. Flatsedge plant response rating (smallflower flatsedge; [10]): 0
- Morningglory plant response rating (morningglory; [11]): 1
- Morningglory plant response rating (morningglory; [12]): 5
- Plant response rating, Morningglory (morningglory; [11]): 0
- Plant response rating, Morningglory (morningglory; [13]): 0
- Plant response rating, Morningglory (morningglory; [14]): 0
- Morningglory plant response rating (morningglory; [15]): 1
- Morningglory plant response rating (morningglory; [16]): 6
- Blackgrass plant response rating (blackgrass; [1]): 0
- Blackgrass plant response rating (blackgrass; [2]): 0
- Plant response rating, Blackgrass (blackgrass; [17]): 0
- Plant response rating, Blackgrass (blackgrass; [3]): 1
- Plant response rating, Blackgrass (blackgrass; [4]): 1
- Blackgrass plant response rating (blackgrass; [5]): 4
- Blackgrass plant response rating (blackgrass; [6]): 0
- Blackgrass plant response rating (blackgrass; [7]): 0
- Giant foxtail plant response rating (giant foxtail; [1]): 0
- Giant foxtail plant response rating (giant foxtail; [2]): 3
- Plant response rating, Giant foxtail (giant foxtail; [17]): 3
- Plant response rating, Giant foxtail (giant foxtail; [3]): 3
- Plant response rating, Giant foxtail (giant foxtail; [4]): 8
- Giant foxtail plant response rating (giant foxtail; [5]): 10
- Giant foxtail plant response rating (giant foxtail; [6]): 3
- Giant foxtail plant response rating (giant foxtail; [7]): 3
- Corn plant response rating (corn; [11]): 0
- Corn plant response rating (corn; [12]): 0
- Plant response rating, Corn (corn; [11]): 0
- Plant response rating, Corn (corn; [13]): 0
- Plant response rating, Corn (corn; [14]): 0
- Corn plant response rating (corn; [15]): 0
- Corn plant response rating (corn; [16]): 0
- Rice plant response rating (rice; [1]): 0
- Rice plant response rating (rice; [8]): 0
- Rice plant response rating (rice; [9]): 0
- Rice plant response rating (rice; [10]): 0
- Sugarbeets plant response rating (sugar beet; [1]): 0
- Sugarbeets plant response rating (sugar beet; [2]): 1
- Plant response rating, Sugarbeets (sugar beet; [17]): 0
- Plant response rating, Sugarbeets (sugar beet; [3]): 0
- Plant response rating, Sugarbeets (sugar beet; [4]): 0
- Sugarbeets plant response rating (sugar beet; [5]): 3
- Sugarbeets plant response rating (sugar beet; [6]): 0
- Sugarbeets plant response rating (sugar beet; [7]): 2
- Redroot pigweed plant response rating (pigweed; [1]): 1
- Redroot pigweed plant response rating (pigweed; [2]): 6
- Plant response rating, Redroot pigweed (pigweed; [17]): 0
- Plant response rating, Redroot pigweed (pigweed; [3]): 0
- Plant response rating, Redroot pigweed (pigweed; [4]): 0
- Redroot pigweed plant response rating (pigweed; [5]): 3
- Redroot pigweed plant response rating (pigweed; [6]): 3
- Redroot pigweed plant response rating (pigweed; [7]): 10
- Bedstraw plant response rating (bedstraw; [11]): 2
- Plant response rating, Bedstraw (bedstraw; [11]): 0
- Plant response rating, Bedstraw (bedstraw; [13]): 0
- Plant response rating, Bedstraw (bedstraw; [14]): 0
- Bedstraw plant response rating (bedstraw; [15]): 3
- Barnyardgrass plant response rating (bamyardgrass; [1]): 0
- Barnyardgrass plant response rating (bamyardgrass; [8]): 0
- Barnyardgrass plant response rating (bamyardgrass; [9]): 0
- Barnyardgrass plant response rating (bamyardgrass; [10]): 0
- Rape plant response rating (rape; [1]): 0
- Rape plant response rating (rape; [2]): 0
- Plant response rating, Rape (rape; [17]): 0
- Plant response rating, Rape (rape; [3]): 0
- Plant response rating, Rape (rape; [4]): 0
- Rape plant response rating (rape; [5]): 0
- Rape plant response rating (rape; [6]): 0
- Rape plant response rating (rape; [7]): 3
- B. signalgrass plant response rating (surinam grass; [1]): 0
- B. signalgrass plant response rating (surinam grass; [2]): 0
- Plant response rating, B. signalgrass (surinam grass; [17]): 0
- Plant response rating, B. signalgrass (surinam grass; [3]): 0
- Plant response rating, B. signalgrass (surinam grass; [4]): 2
- B. signalgrass plant response rating (surinam grass; [5]): 3
- B. signalgrass plant response rating (surinam grass; [6]): 0
- B. signalgrass plant response rating (surinam grass; Rate 500 g/ha, Postemergence, scale of 0 to 10 where 0 is no effect and 10 is complete control): 0
- Crabgrass plant response rating (crabgrass; [1]): 1
- Crabgrass plant response rating (crabgrass; [2]): 6
- Plant response rating, Crabgrass (crabgrass; [17]): 3
- Plant response rating, Crabgrass (crabgrass; [3]): 5
- Plant response rating, Crabgrass (crabgrass; [4]): 7
- Crabgrass plant response rating (crabgrass; [5]): 10
- Crabgrass plant response rating (crabgrass; [6]): 4
- Crabgrass plant response rating (crabgrass; [7]): 10
- Wheat plant response rating (wheat; [1]): 0
- Wheat plant response rating (wheat; [2]): 0
- Plant response rating, Wheat (wheat; [17]): 0
- Plant response rating, Wheat (wheat; [3]): 0
- Plant response rating, Wheat (wheat; [4]): 0
- Wheat plant response rating (wheat; [5]): 0
- Wheat plant response rating (wheat; [6]): 0
- Wheat plant response rating (wheat; [7]): 0
- Nutsedge plant response rating (purple nutsedge; [1]): 0
- Nutsedge plant response rating (purple nutsedge; [2]): 0
- Plant response rating, Nutsedge (purple nutsedge; [17]): 0
- Plant response rating, Nutsedge (purple nutsedge; [3]): 0
- Plant response rating, Nutsedge (purple nutsedge; [4]): 0
- Nutsedge plant response rating (purple nutsedge; [5]): 0
- Nutsedge plant response rating (purple nutsedge; [6]): 0
- Nutsedge plant response rating (purple nutsedge; [7]): 0
